We go through nine compounds from US20060014790A1, “Methods of treatment of amyloidosis using spirocyclohexane aspartyl-protease inhibitors” (priority 2004, published 2006).

The subject of one data set is A-beta. Briefly: Efficacy of compounds to inhibit A-beta concentration (% inhibition vs vehicle control). It counts as in vivo, rat. The settings on record: plasma. As to the method: Efficacious compounds of the present invention are those able to decrease the amount of A-beta produced compared to a control, where beta-secretase mediated cleavage is observed and measured in the absence of the compounds. Detection of efficacy can be by analysis of A-beta levels, for example, by immunoassay, fluorometric or chromogenic assay, HPLC, or other means of detection. The efficacy of the compounds of formula (I) was determined as a percentage inhibition corresponding to A-beta concentrations for tissue treated and untreated with compound.
The invention encompasses compounds of formula (I) that are efficacious.

Data set [1] can be described thus: Oral bioavailability after IV and PO administration. It counts as in vivo. As to conditions: male, Sprague-Dawley, rat, plasma, read-out: Rat % F. As to the method:
The invention encompasses compounds of formula (I) that are orally bioavailable. Oral bioavailability can be determined following both an intravenous (IV) and oral (PO) administration of a test compound.
Oral Bioavailability was determined in the male Sprague-Dawley rat following both IV and PO administration of test compound. Two month-old male rats (250-300 g) were surgically implanted with polyethylene (PE-50) cannula in the jugular vein while under isoflurane anesthesia the day before the in-life phase. Animals were fasted overnight with water ad libitum, then dosed the next day. The dosing regime consisted of either a 5 mg/kg (2.5 mL/kg) IV dose (N=3) administered to the jugular vein cannula, then flushed with saline, or a 10 mg/kg (5 mL/kg) PO dose (N=3) by esophageal gavage. Compounds were formulated with 10% Solutol in 5% dextrose at 2 mg/mL. […]
Compounds were extracted from samples following precipitation of the plasma proteins by methanol. […] Experimental samples were compared to calibration curves prepared in parallel with aged match rat plasma and quantitated with a weighted 1/x linear regression. […]
AUC is calculated from the linear trapezoidal rule by AUC=((C2+C1)/2)×(T2−T1) where C is concentration and T is time.
Pharmacokinetic parameters were calculated by a non-compartmental approach. […]

Data set [2] in a line: Brain uptake (brain penetration after IV administration). As to conditions: CF-1, mouse, in vivo, 10 μmol/kg. As to the method:
The following assay was employed to determine the brain penetration of compounds encompassed by the present invention.
In-life phase: Test compounds were administered to CF-1 (20-30 g) mice at 10 μmol/kg (4 to 7 mg/kg) following IV administration in the tail vein. Two time-points, 5 and 60 min, were collected post dose. Four mice were harvested for heparinized plasma and non-perfused brains at each time-point for a total of 8 mice per compound.
Analytical phase: Samples were extracted and evaporated to dryness, then reconstituted and injected onto a reverse phase chromatographic column while monitoring the effluent with a triple quadrupole mass spectrometer. Quantitation was then performed with a 1/x^2 weighted fit of the least-squares regression from calibration standards prepared in parallel with the in vivo samples. The lower limit of quantitation (LOQ) is generally 1 ng/mL and 0.5 ng/g for the plasma and brain respectively. Data was reported in micromolar (μM) units. Brain levels were corrected for plasma volumes (16 μL/g).

Consider `CC(=O)NC(Cc1cc(F)cc(F)c1)C(O)CNC1(c2cccc(C(C)(C)C)c2)CCC(=O)CC1` (stereo not drawn) [Example 195-3, N-[3-[1-(3-tert-Butyl-phenyl)-4-oxo-cyclohexylamino]-1-(3,5-difluoro-benzyl)-2-hydroxy-propyl]-acetamide], for which, in the data set on A-beta, the “Efficacy (% Inhibition, 100 mg/kg) plasma” value was 58%.
The same measure, in the same setting: the same measure for `CC(=O)NC(Cc1cc(F)cc(F)c1)C(O)CNC1(c2cccc(-n3cccn3)c2)CCCCC1` (stereo not drawn) [Example 195-4, N-{1-(3,5-Difluoro-benzyl)-2-hydroxy-3-[1-(3-pyrazol-1-yl-phenyl)-cyclohexylamino]-propyl}-acetamide]: 67%.
For `COC1CCC(NCC(O)C(Cc2cc(F)cc(F)c2)NC(C)=O)(c2cccc(C(C)(C)C)c2)CC1` (stereo not drawn) [Example 195-6, N-[3-[1-(3-tert-Butyl-phenyl)-4-methoxy-cyclohexylamino]-1-(3,5-difluoro-benzyl)-2-hydroxy-propyl]-acetamide], the “Efficacy (% Inhibition, 100 mg/kg) plasma” value in the data set on A-beta was determined as 49%.
On to `CSC1CCC(NCC(O)C(Cc2cc(F)cc(F)c2)NC(C)=O)(c2cccc(C(C)(C)C)c2)CC1` (stereo not drawn) [Example 195-9, N-[3-[1-(3-tert-Butyl-phenyl)-4-methylsulfanyl-cyclohexylamino]-1-(3,5-difluoro-benzyl)-2-hydroxy-propyl]-acetamide], for which, in the data set with A-beta, the “Efficacy (% Inhibition, 100 mg/kg) plasma” value stood at 38%.
Same read-out and setting: the same measure for `CC(=O)NC(Cc1cc(F)cc(F)c1)C(O)CNC1(c2cc(F)cc(C(C)(C)C)c2)CCCCC1` (stereo not drawn) [Example 195-10, N-(4-(1-(3-tert-butyl-5-fluorophenyl)cyclohexylamino)-1-(3,5-difluorophenyl)-3-hydroxybutan-2-yl)acetamide]: 30%.
On to `CC(=O)NC(Cc1cc(F)cc(F)c1)C(O)CNC1(c2cccc(C(C)(C)C)c2)CCCCC1` (stereo not drawn) [Example 197-1, N-[3-[1-(3-tert-Butyl-phenyl)-cyclohexylamino]-1-(3,5-difluoro-benzyl)-2-hydroxy-propyl]-acetamide], for which the bioavailability in data set [1] amounted to 20.2%.
With `CC(=O)NC(Cc1cc(F)cc(F)c1)C(O)CNC1(c2cccc(C(C)(C)C)c2)CCCCC1` (stereo not drawn) [Example 198-1, N-[3-[1-(3-tert-Butyl-phenyl)-cyclohexylamino]-1-(3,5-difluoro-benzyl)-2-hydroxy-propyl]-acetamide], in data set [2], the Kp at 5 min stood at 1.7 and the Kp at 10 min worked out at 3.
Taken in the same sequence, the figures for `CC(=O)NC(Cc1cc(F)cc(F)c1)C(O)CNC1(c2cccc(C(C)C)c2)CCC(=O)CC1` (stereo not drawn) [Example 198-3, N-{1-(3,5-Difluoro-benzyl)-2-hydroxy-3-[1-(3-isopropyl-phenyl)-4-oxo-cyclohexylamino]-propyl}-acetamide] were 0.5 and 8.4.
Taken in the same sequence, the figures for `CC(=O)NC(Cc1cc(F)cc(F)c1)C(O)CNC1(c2cccc(-c3ccsc3)c2)CCCCC1` (stereo not drawn) [Example 198-4, N-{1-(3,5-Difluoro-benzyl)-2-hydroxy-3-[1-(3-thiophen-3-yl-phenyl)-cyclohexylamino]-propyl}acetamide] were 0.7 and 3.7.
